Measured values: patent publication US20140050805A1, “COMPOSITION, GLUCOSE METABOLISM-IMPROVING AGENT, AND METHOD FOR IMPROVING GLUCOSE METABOLISM” (Lion Corporation, priority 2011, published 2014)

What was measured:
[1] = tested on: Hyperglycemia model mice (TSOD mouse); assay: Blood glucose level in hyperglycemia model mice (TSOD) bred on mixed feed for 5 days; format: in vivo
Protocol: Mixed feeds of Examples 1 to 3 and Comparative Examples 1 to 4 were prepared by mixing a commercially available feed (trade name: D12450B, product of Research Diet Co.) with Panax notoginseng powder (product of MATSUURA YAKUGYO CO., LTD.) and at least one of Piper longum extract (trade name, LONG PEPPER EXTRACT POWDER MF, composition: 10% by mass of a hot water extract of Piper longum, 90% by mass of dextrin, product of MARUZEN PHARMACEUTICALS CO., LTD.) and vitamin B1 nitrate (product of Wako Pure Chemical Industries, Ltd.) in respective amounts shown in the following Table 1. The above commercially available feed only was used in Comparative Example 4.
Hyperglycemia model mice (TSOD mouse (obtained from Institute for Animal Reproduction), 14 weeks old, 5 mice/group) were given ad libitum each of the mixed feeds of Examples 1 to 3 and Comparative Examples 1 to 4 to breed them for 5 days.
(§1) The blood glucose levels at 10 a.m. were measured by the below-described method, before giving the mixed feed to the hyperglycemia model mice (before the start of breeding with the mixed feed) and after giving the mixed feed to the hyperglycemia model mice for 5 days (after the breeding with the mixed feed). A significance test was performed using the Dunnett's multiple test.
Also, the difference between the blood glucose levels before the start of breeding with the mixed feed and after the breeding with the mixed feed (Δblood glucose level) was calculated using the following calculation formula.
Δ Blood glucose level (mg/dL)=Blood glucose level before the start of breeding with the mixed feed (mg/dL)−Blood glucose level after the breeding with the mixed feed (mg/dL)
(§2) The blood glucose level was measured with a simplified blood glucose level measuring system (trade name: CYCLIC GB SENSOR, product of Sanko Junyaku Co., Ltd.).

[2] = tested on: Hyperglycemia model mice (KKAy mice); assay: Blood glucose level in hyperglycemia model mice (KKAy) bred on high fat diet mixed feed for 5 days; format: in vivo, mouse
Protocol: as §2
Mixed feeds of Examples 4 to 7 and Comparative Examples 6 to 8 were prepared by mixing a commercially available high fat diet (trade name: Quick Fat, product of CLEA Japan, Inc.) with the acid-treated Panax notoginseng product produced in Production Example 1 and at least one of Piper longum extract (trade name, LONG PEPPER EXTRACT POWDER MF, composition: 10% by mass of a hot water extract of Piper longum, 90% by mass of dextrin, product of MARUZEN PHARMACEUTICALS CO., LTD.) and vitamin B1 nitrate (product of Wako Pure Chemical Industries, Ltd.) in respective amounts shown in the following Table 2. The mixed feed of Example 8 was prepared by using Panax notoginseng powder (product of MATSUURA YAKUGYO CO., LTD.) instead of the acid-treated Panax notoginseng product of Example 4. The above commercially available high fat diet only was used in Comparative Example 5.
Hyperglycemia model mice (KKAy mice (obtained from CLEA Japan, Inc.), 20 weeks old, 5 mice/group) were given ad libitum each of the mixed feeds of Examples 4 to 8 and Comparative Examples 5 to 8 to breed them for 5 days.
as §1, with “in” for “by”, “same manner as in Example 1,” for “below-described method,”

[3] = level before minus level after 5 days of mixed feed

`Cc1ncc(C[n+]2csc(CCO)c2C)c(N)n1.O=[N+]([O-])[O-]` [compound 2, vitamin B1 nitrate] was tested, and the “Blood glucose levels Before the start of breeding with the mixed feed” value ([1]; 14 weeks old, 10 a.m., average, baseline before mixed feed) was 389.2 mg/dL, the “Δ Blood glucose level” value [1, 3] was 43.9 mg/dL and the “Blood glucose levels After the breeding with the mixed feed” value ([1]; mixed feed ad libitum for 5 days, 10 a.m., average) was 345.3 mg/dL.

In the case of `Cc1ncc(C[n+]2csc(CCO)c2C)c(N)n1.O=[N+]([O-])[O-]` [compound 8, vitamin B1 nitrate], the “Blood glucose levels Before the start of breeding with the mixed feed” value ([2]; 20 weeks old, 10 a.m., average, baseline before mixed feed) is reported as 551 mg/dL, the “Blood glucose levels After the breeding with the mixed feed” value ([2]; high fat diet mixed feed ad libitum for 5 days, 10 a.m., average) is reported as 501 mg/dL and the “Δ Blood glucose level” value [2, 3] is reported as 50 mg/dL.
